Key:
[1] = compound: CC1=C(C(=NN1)C)CC2=C(C3=C(S2)N(C(=O)N(C3=O)C)CC(C)C)C(=O)N4C[C@@H](CO4)O + NC(=O)Nc1cc(-c2cccc(F)c2)sc1C(=O)N[C@H]1CCCNC1 [AZD7762] (partner 0.2 µM); experiment: relative viability (nuclei count vs DMSO), 5 days (fraction); higher = more cells survive
Outline: (§1)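 Lung cancer cell lines in 1536-well plates were dosed by pin tool the day after seeding, either with one drug alone or with a fixed anchor-drug dose plus five library-drug doses (not always all listed) in √10 steps. After 5 days, cells were fixed and their nuclei stained in one step (final 0.05% Triton X-100, 1% formaldehyde, 1 ug/ml Hoechst), then counted on 4× images. Relative viability is the nuclei count in treated wells divided by that in vehicle wells. Values are medians of duplicate plates.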

[2] = compound: CC1=C(C(=NN1)C)CC2=C(C3=C(S2)N(C(=O)N(C3=O)C)CC(C)C)C(=O)N4C[C@@H](CO4)O + CC(=O)Nc1cccc(-n2c(=O)n(C3CC3)c(=O)c3c(Nc4ccc(I)cc4F)n(C)c(=O)c(C)c32)c1 [Trametinib] (partner 0.02 µM); experiment: as above
Outline: as §1

| Cell Line | relative viability ([1]; first compound 0.0025 µM) | relative viability ([1]; first compound 0.007906 µM) | relative viability ([1]; first compound 0.025 µM) | relative viability ([1]; first compound 0.07906 µM) | relative viability ([1]; first compound 0.25 µM) | relative viability ([2]; first compound 0.0025 µM) | relative viability ([2]; first compound 0.007906 µM) | relative viability ([2]; first compound 0.025 µM) | relative viability ([2]; first compound 0.07906 µM) | relative viability ([2]; first compound 0.25 µM) |
| --- | --- | --- | --- | --- | --- | --- | --- | --- | --- | --- |
| NCI-H647 | 0.515 | 0.418 | 0.366 | 0.653 | 0.45 | 0.506 | 0.582 | 0.579 | 0.558 | 0.448 |
| NCI-H650 | 1.03 | 0.961 | 0.893 | 0.936 | 0.913 | 1.09 | 1.01 | 1.15 | 0.982 | 1.04 |
| NCI-H661 | – | – | – | – | – | 0.624 | 0.59 | 0.505 | 0.583 | 0.56 |
| NCI-H727 | 0.6 | 0.842 | 0.575 | 0.623 | 0.652 | 0.348 | 0.374 | 0.442 | 0.379 | 0.34 |
| NCI-H838 | 0.908 | 0.859 | 0.884 | 0.835 | 0.896 | 0.498 | 0.569 | 0.393 | 0.452 | 0.505 |
| NCI-H1355 | 0.688 | 0.842 | 0.713 | 0.65 | 0.816 | 0.461 | 0.423 | 0.472 | 0.402 | 0.442 |
| NCI-H1395 | 0.416 | 0.4 | 0.4 | 0.356 | 0.389 | 1.07 | 0.988 | 0.994 | 1.04 | 1 |
| NCI-H1437 | 1.21 | 1.07 | 1.09 | 1.11 | 1.14 | 0.617 | 0.675 | 0.543 | 0.563 | 0.511 |
| NCI-H1648 | 0.615 | 0.437 | 0.5 | 0.428 | 0.613 | 0.593 | 0.431 | 0.635 | 0.356 | 0.52 |
| NCI-H1650 | – | – | – | – | – | 0.626 | 0.687 | 0.759 | 0.62 | 0.788 |
| NCI-H1651 | 0.414 | 0.478 | 0.391 | 0.337 | 0.416 | 0.865 | 0.861 | 0.849 | 0.798 | 0.819 |
| NCI-H1666 | 0.741 | 0.859 | 0.812 | 0.787 | 1.01 | 0.876 | 0.824 | 0.885 | 0.786 | 0.891 |
| NCI-H1703 | 0.113 | 0.144 | 0.112 | 0.113 | 0.136 | – | – | – | – | – |
| NCI-H1734 | 0.53 | 0.581 | 0.342 | 0.402 | 0.381 | 0.666 | 0.757 | 0.675 | 0.62 | 0.665 |
| NCI-H1755 | 0.465 | 0.434 | 0.425 | 0.407 | 0.471 | 0.829 | 0.818 | 0.745 | 0.73 | 0.761 |
| NCI-H1792 | 0.607 | 0.727 | 0.512 | 0.564 | 0.578 | 0.471 | 0.418 | 0.409 | 0.548 | 0.585 |
| NCI-H1793 | 0.281 | 0.339 | 0.203 | 0.279 | 0.24 | 0.378 | 0.435 | 0.392 | 0.455 | 0.36 |
| NCI-H1915 | 0.742 | 0.727 | 0.658 | 0.641 | 0.762 | 0.295 | 0.307 | 0.288 | 0.302 | 0.32 |
| NCI-H1944 | 0.531 | 0.524 | 0.466 | 0.478 | 0.51 | 0.422 | 0.438 | 0.478 | 0.396 | 0.385 |

| Cell Line | relative viability ([1]; first compound 0.0025 µM) | relative viability ([1]; first compound 0.007906 µM) | relative viability ([1]; first compound 0.025 µM) | relative viability ([1]; first compound 0.07906 µM) | relative viability ([1]; first compound 0.25 µM) | relative viability ([2]; first compound 0.0025 µM) | relative viability ([2]; first compound 0.007906 µM) | relative viability ([2]; first compound 0.025 µM) | relative viability ([2]; first compound 0.07906 µM) | relative viability ([2]; first compound 0.25 µM) |
| --- | --- | --- | --- | --- | --- | --- | --- | --- | --- | --- |
| NCI-H1975 | 0.709 | 0.691 | 0.735 | 0.723 | 0.771 | 0.38 | 0.358 | 0.403 | 0.491 | 0.33 |
| NCI-H1993 | 0.893 | 0.656 | 0.596 | 0.674 | 0.696 | 0.627 | 0.0091 | 0.553 | 0.641 | 0.522 |
| NCI-H2009 | – | – | – | – | – | 0.318 | 0.286 | 0.289 | 0.287 | 0.237 |
| NCI-H2023 | – | – | – | – | – | 0.667 | 0.613 | 0.562 | 0.599 | 0.575 |
| NCI-H2085 | 1.01 | 1.02 | 0.879 | 0.986 | 0.448 | 0.844 | 0.586 | 0.575 | 0.608 | 0.549 |
| NCI-H2087 | 1.43 | 1.37 | 1.15 | 1.13 | 1.3 | 0.248 | 0.202 | 0.213 | 0.201 | 0.208 |
| NCI-H2126 | 1.06 | 1.08 | 0.943 | 0.867 | 1.05 | 0.527 | 0.57 | 0.548 | 0.551 | 0.577 |
| NCI-H2170 | 0.899 | 0.925 | 0.854 | 0.895 | 0.906 | 0.909 | 0.966 | 0.956 | 0.756 | 0.94 |
| NCI-H2228 | – | – | – | – | – | 0.788 | 0.584 | 0.578 | 0.662 | 0.577 |
| NCI-H2342 | 0.414 | 0.505 | 0.345 | 0.373 | 0.388 | 0.932 | 0.751 | 0.724 | 0.854 | 0.976 |
| NCI-H2347 | 0.739 | 0.697 | 0.734 | 0.718 | 0.667 | 0.269 | 0.313 | 0.301 | 0.274 | 0.265 |
| NCI-H2405 | 0.793 | 0.778 | 0.573 | 0.69 | 0.678 | 0.689 | 0.627 | 0.618 | 0.673 | 0.692 |
| NCI-H3122 | 1.03 | 1.09 | 1.02 | 0.973 | 1.02 | 0.226 | 0.305 | 0.254 | 0.187 | 0.229 |
| PC-3 [JPC-3] | 0.872 | 0.76 | 0.69 | 0.976 | 0.806 | 0.74 | 0.649 | 0.718 | 0.678 | 0.682 |
| PC-14 | 0.33 | 0.371 | 0.332 | 0.374 | 0.306 | 0.795 | 0.839 | 0.784 | 0.917 | 0.929 |
| SK-LU-1 | – | – | – | – | – | 0.47 | 0.409 | 0.326 | 0.344 | 0.374 |
| SK-MES-1 | – | – | – | – | – | 0.562 | 0.607 | 0.604 | 0.591 | 0.592 |
| SW 1573 | – | – | – | – | – | 0.496 | 0.574 | 0.622 | 0.59 | 0.654 |
